Columns and labels:
[1] = tested on: sAPPα release, NT2 cells stably expressing human APP751; test: sAPPα ELISA, NT2 cells expressing APP751; assay type: cell-based; conditions: 24 h
Procedure: (§1) (5). To confirm the effect of THPI-244 on sAPPα levels in a neuronal cell line and by a tertiary assay, we exposed human Neuron-committed Teratocarcinoma cell line (NT2) stably expressing human APP751 to different concentrations of THPI-244 for 24 h and compared with that of Bryostatin, a classical activator of PKC known to stimulate sAPPα release. […] Levels of sAPPα were measured by ELISA using commercially available kit (cat #27734, IBL-America, Minneapolis, Minn., USA). […] Similar biphasic effect of Bryostatin was confirmed for Aβ42 also, measured again in NT2 stable cells by ELISA (cat # KHB3441, Life Technologies, Grand Island, N.Y., USA). Consistent with sAPPα, THPI-244 decreased Aβ42 levels dose-dependently starting from 50 nM (28%, p<0.05) to 2000 nM (64%, p<0.001) (n=4 independent experiments) (FIG. 1.7). Thus THPI-244 increased non-amyloidogenic processing of APP in NT2 cells.

[2] = tested on: sAPPα release, fibroblasts derived from AD patients; test: sAPPα ELISA, AD fibroblasts; assay type: cell-based, human; conditions: 24 h
Procedure: (§2) (1). […] Therefore, we first used fibroblasts derived from AD patients (AG06263C, Coriell Cell repository, supported by NINDS/NIH) and exposed to THPI-244 for 24 h and measured sAPPα release by ELISA as done above for NT2 cells. […] We also confirmed dose-dependent effect of THPI-244 on sAPPα levels in human primary neurons transiently transfected with APP751 with Swedish mutation which is trafficked differently from WT APP and releases more sAPPα. Human neurons were grown on specially coated glass coverslips (cat # GG-18-PDL, NeuVitro, Germany). We could reproducibly achieve nearly 30% transfection efficiency using a nanoparticle based transfection reagent called Neuromag (cat # NM150299, OZ Biosciences, France).

[3] = tested on: sAPPα; test: Mouse brain lysate immunoblot, sAPPα; assay type: in vivo; conditions: i.p. 100 mg/kg for 5 days, brain lysates
Procedure: FIGS. 9.2A and B illustrate that THPI-244 increases TrkA and sAPPα in the mouse brain. FIG. 9.2A illustrates that THPI-244 was administered to mice by i.p. injections at 100 mg/kg body weight for 5 days and the brain lysates were subjected to immunoblots. Specific antibodies were used to detect TrkA and sAPPα. […] Data are mean±SEM, n=3*, p<0.05, ***, p<0.001.

[4] = tested on: TrkA; test: TrkA increase by THPI-244 analogs; assay type: cell-based
From the text: (§3) The following table illustrates Chemical structures and properties of THPI-244 analogs selected out of 37 analogs, and each have significant sAPPα increasing activity. Toxicity is the minimum dose for toxicity.

[5] = tested on: fibroblasts derived from AD patients; test: MTT cytotoxicity, AD fibroblasts; assay type: cell-based, human; conditions: 24 h exposure
From the text: (§4) (4). Toxicity is another crucial limitation for successful drug development as evidenced by recent failure of γ-secretase inhibitors at the clinical trials due to cytotoxicity (Cole, S L and Vassar, R, 2007, Mol. Neurodeg. 2, 22-47; Doody R S, et al. 2013. N. Eng. J. Med. 369, 341-350). Therefore we measured cytotoxicity by very sensitive MTT assay as described previously (Hayes, C D., et al. 2013, BMC Medicine. 26, 11.81; 23; Hayes, C D., et al., 2012, PLoS One 7, e45841) in human primary neurons obtained from a commercial source (cat #1520, ScienCell, Carlsbad, Calif., USA) and fibroblasts derived directly from A D patients (cat# AG06263C, Coriell Institute Cell repository supported by NINDS, NIH). […] We directly used human neurons for toxicity studies so as to reduce the chances of future failure at a later stage due to toxicity.

[6] = tested on: human primary neurons; test: MTT cytotoxicity, human primary neurons; assay type: cell-based
From the text: as §4

[7] = BBB of THPI-244 analogs
From the text: as §3

[8] = tested on: C57BL/6 mice; test: Lethal dose (LD50) study in mice; assay type: in vivo, mouse
From the text: Wild-type (WT) C57BL/6 mice aged about 6 months were used in the study. The compound THPI-244 was initially dissolved in 100% DMSO and then diluted to final 10% DMSO with phosphate buffered saline (PBS). […] Among these 6 mice, 3 mice received repeated injections (i.p) of compound THPI-244 for 5 days.

[9] = Brain levels after i.p. injection (LC-MS); assay type: in vivo, mouse
Procedure: (3). Since blood brain barrier (BBB) is the main obstacle for drug development for any CNS disorders, we first wanted to verify whether compound THPI-244 enters the brain. We followed protocols exactly as published previously from our laboratory (Hayes, C D et al., 2013, BMC Med. 26, 11.81). […] We generated a standard graph (FIG. 1.4 (middle)) to be used in the quantitation of THPI-244 in the brain after intraperitoneal (i.p.) injections at 0.2 mg/kg body weight.

[10] = tested on: Aβ42 levels, NT2 cells stably expressing APP751; test: Aβ42 ELISA, NT2 stable cells; assay type: cell-based, human
Procedure: as §1

[11] = tested on: PI3Kα, MAPK, PLC-γ, P75NTR pathways; test: Signal transduction analysis, NT2 cells; assay type: cell-based, human
From the text: (2). THPI-244 increases sAPPα by a novel mechanism of upregulating TrkA, a neurotrophic receptor. Therefore, in addition to increasing neuroprotective sAPPα and decreasing toxic Aβ, THPI-244 mediated increased TrkA protein levels are expected to provide neurotrophic support. Following the validation of the effect of THPI-244 in increasing sAPPα levels in CHO cells, NT2 cells, AD fibroblasts and human primary neurons, we were interested in identifying the molecular target of THPI-244 for unraveling the molecular mechanism by which it increases sAPPα which in turn can predict toxicity profile and whether to pursue long-term studies. Increased protein levels of both native and phosphorylated form of TrkA in NT2 cells and mouse brains by THPI-244 validated TrkA as the target.

[12] = tested on: sAPPα levels, human primary neurons transiently transfected with APP751 with Swedish mutation; test: sAPPα ELISA, human primary neurons transfected with APP751; assay type: cell-based
Procedure: as §2

[13] = i.p. 0.2 mg/kg body weight, mouse

## O=C(Cc1ccccc1)N[C@H](CNc1nc(CN2CCN(C(=O)Cc3ccccc3)CC2)cs1)c1ccccc1 [THPI-244]
[1]
  concentration from which sAPPα increase is significant: 50 nM
[2]
  concentration from which sAPPα increase is significant: 50 nM
[3]
  increase of sAPPα: 89%
[4]
  % TrkA ↑: 99%
[5]
  concentration from which cytotoxicity is significant: 50 µM
[6]; MTT, 24 h exposure, human primary neurons
  concentration from which cytotoxicity is significant: 40 µM
[6]; human primary neurons and AD fibroblasts
  therapeutic window: 800
[7]
  % BBB: 0.1%
[8]; 100 mg/kg i.p., 6 mice, monitored for 5 days
  death: did not result in the death of any of the 6 mice
[8]; 200 mg/kg, single mouse
  survival: survived without visible ill effects
[8]; repeated i.p. injections for 5 days, 3 mice
  lethal effect: None of the mice showed any lethal effect
[9]; [13]
  amount remaining in the brain at 240 min: negligible amount
  time to maximum levels in the brain: ≤ 5 min
[9]; i.p. administration, mouse brain
  blood-brain barrier passage: passes through the blood-brain barrier
[10]; 50 nM
  decrease of Aβ42 levels: 28%
[10]; 2000 nM
  decrease of Aβ42 levels: 64%
[10]; ELISA
  concentration from which Aβ42 decrease is significant: 50 nM
[11]
  MAPK or PLC-γ pathways: not
  PI3Kα pathway: activation
[12]; 50 nM
  increase of sAPPα levels: 171%
[12]; 2000 nM
  increase of sAPPα levels: 301%
